# Test results from patent US10543221B2, “Beta-lactamase inhibitors, formulations, and uses thereof” (priority 2016, dated 2020).
# Legend:
# [1] = system: K. pneumoniae strain expressing KPC-2; type: cell-based; settings: single agent; K. pneumoniae ATCC 4683, phenotype KPC-2
# Procedure: (§1) MIC Studies. Compounds were tested for synergy with the carbapenem antibiotic, imipenem, against BL21(DE3) E. coli expressing KPC-2. MIC values were determined with the Mueller-Hinton broth microdilution method. To test for inhibitory activity, compounds were dissolved in DMSO and dilutions were carried out using LB broth. Compounds were test at 100 µM with increasing concentrations of imipenem. […] After inoculation, the plates are incubated at 37 C for 24 hours. The MIC of the compounds were then determined visually. […] For Table 3, 16 μg/mL of compounds were tested for synergy with the carbapenem antibiotic, imipenem, against a K. pneumoniae strain expressing KPC-2.
# VIM-2 = VIM-2 (Escherichia coli, UniProt Q5U7L7); assay: Steady-state kinetic analysis, VIM-2; type: biochemical
# [2] = biological target: NDM-1 metallo-beta-lactamase (Klebsiella pneumoniae, UniProt C7C422); assay: Steady-state kinetic analysis, nitrocefin hydrolysis, NDM-1; type: biochemical; settings: second NDM-1 column of Table 1
# Chain of NDM-1 metallo-beta-lactamase (C7C422 whole entry, looked up): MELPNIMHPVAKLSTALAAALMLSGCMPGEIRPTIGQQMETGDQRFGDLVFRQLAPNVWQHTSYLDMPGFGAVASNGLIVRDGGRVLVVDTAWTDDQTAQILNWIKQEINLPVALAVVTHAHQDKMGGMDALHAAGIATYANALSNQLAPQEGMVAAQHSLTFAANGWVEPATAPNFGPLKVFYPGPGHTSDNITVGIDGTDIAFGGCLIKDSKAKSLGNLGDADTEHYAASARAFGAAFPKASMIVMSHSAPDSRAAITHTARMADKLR
# KPC-2 beta-lactamase = KPC-2 beta-lactamase (Klebsiella pneumoniae, UniProt Q9F663); assay: Steady-state kinetic analysis, nitrocefin hydrolysis, KPC-2; type: biochemical; settings: nitrocefin substrate
# Chain of KPC-2 beta-lactamase (Q9F663 whole entry, looked up): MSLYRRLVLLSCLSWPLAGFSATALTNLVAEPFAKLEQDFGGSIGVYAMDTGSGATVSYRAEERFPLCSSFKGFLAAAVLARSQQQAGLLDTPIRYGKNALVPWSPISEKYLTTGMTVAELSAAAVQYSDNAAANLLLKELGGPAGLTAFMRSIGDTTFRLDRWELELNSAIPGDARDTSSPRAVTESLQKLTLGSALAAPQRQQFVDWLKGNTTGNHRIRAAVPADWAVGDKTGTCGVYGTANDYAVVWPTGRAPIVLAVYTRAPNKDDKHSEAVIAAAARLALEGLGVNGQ
# Procedure: Fractions were analyzed by SDS-PAGE.
# (§2) Steady-State Kinetic Analysis. Steady-state kinetic parameters were determined by using a Biotek Cytation Multi-Mode Reader. For KPC-2, each assay was performed in 100 mM Tris-HCl pH 7.0, 0.01% Triton X-100 at 37 C. […] Compounds according to Formulas 5-10 were purchased from commercial sources. The last compound was de novo synthesized.
# His-tag SHV-2 = His-tag SHV-2 (Escherichia coli, UniProt P0A9Z7)
# Chain of His-tag SHV-2 (P0A9Z7 22-286 limits assumed): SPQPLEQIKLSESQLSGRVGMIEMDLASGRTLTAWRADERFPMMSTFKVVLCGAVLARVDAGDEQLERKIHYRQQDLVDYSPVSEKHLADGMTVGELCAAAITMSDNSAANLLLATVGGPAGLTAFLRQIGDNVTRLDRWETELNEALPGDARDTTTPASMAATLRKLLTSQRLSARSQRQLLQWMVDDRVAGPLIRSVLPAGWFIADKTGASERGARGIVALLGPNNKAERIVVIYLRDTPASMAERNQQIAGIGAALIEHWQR
# Procedure: as §2, with “C. Vmax and Km were determined from initial steady-state velocities from nitrocefin read at a wavelength of 486 nm. The kinetic parameters were obtained using the non-linear portion of the data to the Henri-Michaelis (equation 1) using SigmaPlot 12.5.” for “C.”
# [3] = system: BL21(DE3) E. coli expressing KPC-2; assay: MIC study, synergy with imipenem, broth microdilution, E. coli; type: cell-based; settings: imipenem alone; E. coli BL21(DE3) pET-GST-blaKPC-2; 37 C, 24 hours
# Procedure: as §1
smiles,measurement,setting,value
Cc1cc2oc(=O)cc(CP(=O)(O)O)c2cc1C [Compound 73043],MIC,[1],>32 µg/mL
Cc1cc(Br)c2c(CP(=O)(O)O)cc(=O)oc2c1 [Compound 994942],Ki,VIM-2,1.8 µM
same,Ki,[2],55 µM
O=c1cc(CP(=O)(O)O)c2ccccc2[nH]1 [Compound 994943],Ki,VIM-2,9.12 µM
O=c1cc(CP(=O)(O)O)c2c(F)cc(F)cc2o1 [Compound 995015],Ki,VIM-2,4.7 µM
O=P(O)(O)Cc1cccc2cccnc12 [Compound 995016],Ki,VIM-2,24.3 µM
Cn1c(=O)cc(CP(=O)(O)O)c2ccccc21 [Compound 995018],Ki,VIM-2,15.6 µM
O=P(O)(O)Cc1cccc2ccc[n+]([O-])c12 [Compound 995019],His-Tag KPC-2 Ki,KPC-2 beta-lactamase,precipitation
same,VIM-2 Ki,VIM-2,precipitation
same,His-tag SHV-2 Ki,His-tag SHV-2,precipitation
same,NDM-1 Ki,[2],precipitation
"C[C@@H](O)[C@H]1C(=O)N2C(C(=O)O)=C(SCCN=CN)C[C@H]12 [Imipenem, imipenem, reference compound]",MIC,[3],4 µg/mL
same,MIC,[1],8 µg/mL
